Data on two compounds can be found in paper PMC6951815 (Free radical biology & medicine, 2019).

Structures are written as SMILES.

The test has as its target Cys-TrxR (recombinant E. coli thioredoxin reductase) (Escherichia coli, UniProt P0A9P4). Description: Trx-dependent reduction assay. The test is classed as biochemical.

Sequence of Cys-TrxR (recombinant E. coli thioredoxin reductase) (P0A9P4 2-321): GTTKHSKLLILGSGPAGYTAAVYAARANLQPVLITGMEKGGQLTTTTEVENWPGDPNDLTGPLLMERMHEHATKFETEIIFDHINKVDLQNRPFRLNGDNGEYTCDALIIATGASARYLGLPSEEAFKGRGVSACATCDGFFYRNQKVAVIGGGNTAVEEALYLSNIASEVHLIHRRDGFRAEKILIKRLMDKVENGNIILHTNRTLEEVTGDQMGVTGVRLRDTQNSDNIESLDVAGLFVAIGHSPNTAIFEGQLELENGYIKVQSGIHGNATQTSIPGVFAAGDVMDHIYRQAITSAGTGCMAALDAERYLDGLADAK

By IC50 is commonly meant the point on the concentration scale where inhibition reaches its midpoint. On to `N#CSO` [HOSCN], for which the IC50 came out at 9.3 µM.
The value for `N#C[Se]O` [HOSeCN] was 4.3 µM.
